Assay results taken from US12371428B2 (Exelixis, Inc., priority 2019, dated 2025).

Assays:
[1] = molecular target: Met (phospho-Met, HGF-stimulated PC-3 prostate cancer cells) (Homo sapiens (Human), UniProt P08581); test: Met autophosphorylation ELISA in PC-3 cells (Example F); format: cell-based; conditions: cellular activity; Met autophosphorylation ELISA in PC-3 cells; read-out: c-Met IC50
Method in brief: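 Sandwich ELISA for phospho-Met (panTyr) in PC-3 lysates. Cells starved 3 h serum-free, compound 1 h (8-pt curve, 0.3% DMSO), HGF 100 ng/mL 10 min. 100% = HGF + DMSO; 0% = HGF + reference inhibitor. IC50 by 4-parameter fit.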

[2] = molecular target: Human MET (residues 956-1390) (Homo sapiens (Human), UniProt P08581); test: Human Met kinase assay, HTRF KinEase (Example D-2); format: biochemical; conditions: protocol of Example D-2; read-out: c-Met IC50
Method in brief: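 MET kinase domain (956-1390), 0.1 ng/well, in buffer with 5 mM MgCl2, 1 mM DTT and 1 mM MnCl2, phosphorylated a biotinylated peptide at ATP Km for 40 min at RT; 10 concentrations, 3% DMSO final. EDTA-stopped HTRF read after 60 min; IC50 from a 4-parameter logistic fit.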

[3] = molecular target: Mer (phospho-Mer, MERTK-transfected 293A cells) (Homo sapiens (Human), UniProt Q12866); test: Mer autophosphorylation ELISA in transient transfected 293A cells (Example H); format: cell-based; conditions: cellular activity; Mer autophosphorylation ELISA in transient transfected 293A cells
Method in brief: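 IC50 from phospho-Mer ELISA of MERTK-transfected 293A cell lysates after 1 h treatment with serially diluted compound in serum-free medium.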

[4] = molecular target: Human MER (residues 528-999) (Homo sapiens (Human), UniProt Q12866); test: Human Mer kinase assay, HTRF KinEase (Example C-2); format: biochemical; conditions: protocol of Example C-2
Method in brief: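 Recombinant MER 528-999 (1 ng/well) in buffer with 5 mM MgCl2 and 1 mM DTT was reacted with biotinylated peptide and ATP at Km (40 μM) for 60 min at room temperature. EDTA stop with SA-XL665 and Eu3+ TK antibody, then 665/620 nm HTRF read; IC50 from 4-parameter fit.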

Measured: IC50

Sequence of Met (phospho-Met, HGF-stimulated PC-3 prostate cancer cells) (P08581 25-1390): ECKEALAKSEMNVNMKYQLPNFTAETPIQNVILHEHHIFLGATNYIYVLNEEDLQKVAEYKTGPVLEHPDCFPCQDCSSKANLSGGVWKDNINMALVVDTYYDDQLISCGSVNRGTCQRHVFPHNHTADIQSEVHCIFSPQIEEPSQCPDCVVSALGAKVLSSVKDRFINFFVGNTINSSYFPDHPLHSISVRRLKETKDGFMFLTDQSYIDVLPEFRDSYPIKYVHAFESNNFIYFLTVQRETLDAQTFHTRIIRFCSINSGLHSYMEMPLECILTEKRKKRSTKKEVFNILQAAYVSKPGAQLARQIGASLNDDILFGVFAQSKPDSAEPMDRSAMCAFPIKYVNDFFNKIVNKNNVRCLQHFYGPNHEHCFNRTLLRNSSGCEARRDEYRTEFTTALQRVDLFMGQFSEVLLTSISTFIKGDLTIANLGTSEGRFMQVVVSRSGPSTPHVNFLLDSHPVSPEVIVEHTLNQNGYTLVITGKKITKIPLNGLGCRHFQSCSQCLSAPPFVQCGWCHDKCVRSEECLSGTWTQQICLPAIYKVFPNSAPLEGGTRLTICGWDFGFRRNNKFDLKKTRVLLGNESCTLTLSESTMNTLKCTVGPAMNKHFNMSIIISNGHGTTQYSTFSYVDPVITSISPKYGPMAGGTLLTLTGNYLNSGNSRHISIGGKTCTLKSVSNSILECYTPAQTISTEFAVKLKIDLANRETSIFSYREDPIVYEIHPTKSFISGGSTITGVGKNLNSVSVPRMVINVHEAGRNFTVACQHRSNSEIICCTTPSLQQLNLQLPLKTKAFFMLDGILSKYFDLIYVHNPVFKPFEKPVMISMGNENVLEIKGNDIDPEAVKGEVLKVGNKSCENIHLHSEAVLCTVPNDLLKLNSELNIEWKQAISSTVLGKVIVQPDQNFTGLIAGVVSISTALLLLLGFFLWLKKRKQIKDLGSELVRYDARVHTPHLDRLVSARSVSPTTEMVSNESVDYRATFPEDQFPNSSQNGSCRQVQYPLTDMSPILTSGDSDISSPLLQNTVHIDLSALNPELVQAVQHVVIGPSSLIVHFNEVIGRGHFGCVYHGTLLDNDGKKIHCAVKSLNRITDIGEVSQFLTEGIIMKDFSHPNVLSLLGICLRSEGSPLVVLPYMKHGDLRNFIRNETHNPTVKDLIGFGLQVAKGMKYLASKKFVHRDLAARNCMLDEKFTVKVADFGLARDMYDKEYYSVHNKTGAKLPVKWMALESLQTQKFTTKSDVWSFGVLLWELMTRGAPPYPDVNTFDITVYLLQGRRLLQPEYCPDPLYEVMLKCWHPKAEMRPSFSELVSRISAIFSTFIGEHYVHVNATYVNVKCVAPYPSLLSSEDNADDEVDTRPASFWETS
Sequence of Human MER (residues 528-999) (Q12866 528-999): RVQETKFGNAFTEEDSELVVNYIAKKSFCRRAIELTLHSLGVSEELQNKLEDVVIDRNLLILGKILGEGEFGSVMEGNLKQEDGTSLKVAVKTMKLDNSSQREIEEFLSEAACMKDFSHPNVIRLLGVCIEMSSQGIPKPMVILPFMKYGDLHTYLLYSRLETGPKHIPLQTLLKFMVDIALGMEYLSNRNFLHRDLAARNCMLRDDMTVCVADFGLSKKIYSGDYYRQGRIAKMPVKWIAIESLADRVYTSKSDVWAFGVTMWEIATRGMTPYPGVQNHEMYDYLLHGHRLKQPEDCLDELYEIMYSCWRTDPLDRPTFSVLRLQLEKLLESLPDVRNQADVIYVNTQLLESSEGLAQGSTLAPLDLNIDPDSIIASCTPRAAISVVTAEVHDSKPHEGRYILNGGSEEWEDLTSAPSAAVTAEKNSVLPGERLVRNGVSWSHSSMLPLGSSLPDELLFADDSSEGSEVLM
Sequence of Human MET (residues 956-1390) (P08581 956-1390): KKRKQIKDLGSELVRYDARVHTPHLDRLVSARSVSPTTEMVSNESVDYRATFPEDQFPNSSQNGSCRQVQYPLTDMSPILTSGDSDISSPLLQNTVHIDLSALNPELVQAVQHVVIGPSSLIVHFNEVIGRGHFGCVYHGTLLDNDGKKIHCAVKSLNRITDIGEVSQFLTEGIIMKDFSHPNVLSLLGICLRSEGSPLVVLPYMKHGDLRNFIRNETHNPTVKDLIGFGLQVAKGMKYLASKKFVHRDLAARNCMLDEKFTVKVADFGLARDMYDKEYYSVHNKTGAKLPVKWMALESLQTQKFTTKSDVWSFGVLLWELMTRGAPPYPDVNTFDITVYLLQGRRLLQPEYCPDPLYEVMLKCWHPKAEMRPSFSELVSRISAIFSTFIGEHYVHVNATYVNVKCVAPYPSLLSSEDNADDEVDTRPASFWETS
Sequence of Mer (phospho-Mer, MERTK-transfected 293A cells) (Q12866 21-999): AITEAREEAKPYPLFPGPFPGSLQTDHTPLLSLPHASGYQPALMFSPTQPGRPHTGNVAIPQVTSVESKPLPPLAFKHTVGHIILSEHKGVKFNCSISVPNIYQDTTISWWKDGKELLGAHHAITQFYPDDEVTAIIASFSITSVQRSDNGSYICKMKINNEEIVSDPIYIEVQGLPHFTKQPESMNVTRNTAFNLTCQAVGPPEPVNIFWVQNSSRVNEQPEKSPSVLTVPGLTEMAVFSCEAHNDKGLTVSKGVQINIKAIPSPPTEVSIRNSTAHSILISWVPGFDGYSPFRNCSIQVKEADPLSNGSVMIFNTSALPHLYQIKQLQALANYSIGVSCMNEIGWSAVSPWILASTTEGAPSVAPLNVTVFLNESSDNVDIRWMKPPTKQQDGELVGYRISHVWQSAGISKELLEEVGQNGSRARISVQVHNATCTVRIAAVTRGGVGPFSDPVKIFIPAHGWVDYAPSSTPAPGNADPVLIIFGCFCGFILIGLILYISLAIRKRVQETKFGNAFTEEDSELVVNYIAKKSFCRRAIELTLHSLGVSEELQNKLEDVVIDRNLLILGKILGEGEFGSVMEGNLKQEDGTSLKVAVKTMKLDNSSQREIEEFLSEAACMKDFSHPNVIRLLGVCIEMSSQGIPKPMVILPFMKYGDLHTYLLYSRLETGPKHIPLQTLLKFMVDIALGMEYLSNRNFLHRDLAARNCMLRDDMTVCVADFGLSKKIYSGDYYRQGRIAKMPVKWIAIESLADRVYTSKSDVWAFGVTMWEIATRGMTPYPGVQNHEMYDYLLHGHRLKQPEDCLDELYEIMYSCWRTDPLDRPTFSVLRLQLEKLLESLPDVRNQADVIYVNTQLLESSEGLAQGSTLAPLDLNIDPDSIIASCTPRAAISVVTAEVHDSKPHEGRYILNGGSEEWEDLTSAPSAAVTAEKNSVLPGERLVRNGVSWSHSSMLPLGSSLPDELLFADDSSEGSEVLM

Cc1ncc(C(=O)Nc2ccc(Oc3ccnc4cnccc34)c(F)c2)c(O)c1-c1ccc(F)cc1 [Compound 642, N-[3-fluoro-4-(1,7-naphthyridin-4-yloxy)phenyl]-5-(4-fluorophenyl)-4-hydroxy-6-methylpyridine-3-carboxamide]
< 100 nM: all assays above

Cc1ncc(C(=O)Nc2ccc(Oc3ccnc4cnccc34)cc2)c(O)c1-c1ccc(F)cc1 [Compound 643, 5-(4-fluorophenyl)-4-hydroxy-6-methyl-N-[4-(1,7-naphthyridin-4-yloxy)phenyl]pyridine-3-carboxamide]
< 100 nM: all assays above

COc1cc2c(Oc3ccc(NC(=O)c4cnc(C)c(-c5ccc(F)cc5)c4O)cc3)ccnc2cn1 [Compound 644, 5-(4-fluorophenyl)-4-hydroxy-N-[4-[(6-methoxy-1,7-naphthyridin-4-yl)oxy]phenyl]-6-methylpyridine-3-carboxamide]
< 100 nM: all assays above

Cc1cc2c(Oc3ccc(NC(=O)c4cnc(C)c(-c5ccc(F)cc5)c4O)cc3F)ccnc2cn1 [Compound 645, N-[3-fluoro-4-[(6-methyl-1,7-naphthyridin-4-yl)oxy]phenyl]-5-(4-fluorophenyl)-4-hydroxy-6-methylpyridine-3-carboxamide]
< 100 nM: all assays above
